Assay results published in ChEMBL document CHEMBL1201862, “PubChem BioAssay data set” (2004).
Active and inactive are the calls of the source.

Columns and labels:
[1] = Late stage assay provider results from the probe development effort to identify inhibitors of the Plasmodium falciparum M17 Leucine Aminopeptidase (M17LAP): radiolabel-based cell-based dose response assay to identify compounds that inhibit P. falciparum growth in RBCs Set 2.; type: functional
[2] = biological target: Metabotropic glutamate receptor 3 (Rattus norvegicus, UniProt P31422); test: mGlu3 negative allosteric modulator potency, dose response, HEK/GIRK cells, thallium flux, rat (AID 651839); type: functional
[3] = IRAP inhibitors, dose response, selectivity assay for ERAP1 modulator project, biochemical, Leu-AMC fluorescence, cherry-picked samples, set 2 (AID 743340)
[4] = cytotoxicity in COV362 ovarian cancer cells, dose response, cytotoxicity control for PAX8 inhibitor project, cell-based, plate reader, dry powder, SA12 (AID 743144); type: functional
[5] = IGROV1 ovarian cancer cell cytotoxicity, dose response, PAX8 inhibitor project, plate reader, dry powder samples (AID 743043); type: functional, cell-based; settings: IGROV-1
[6] = PAX2 cell-based inhibition, dose response, selectivity assay for PAX8 inhibitor project, plate reader, dry powder samples (AID 743048); type: functional;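 note: HEK293 cells carrying a WT1 promoter luciferase reporter driven by expressed Pax2; potency is for inhibition of Pax2 driven reporter signal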
[7] = IOSE-T80 ovarian epithelial cell cytotoxicity, dose response, cytotoxicity control for PAX8 inhibitor project, plate reader, dry powder samples (AID 743045); type: functional, cell-based
[8] = NIH:OVCAR-3 ovarian cancer cell cytotoxicity, dose response, PAX8 inhibitor project, plate reader, dry powder samples (AID 743044); type: functional, cell-based
[9] = cytotoxicity in OV-90 ovarian cancer cells, dose response, PAX8 inhibitor project, cell-based, plate reader, dry powder, SA8 (AID 743149); type: functional
[10] = cytotoxicity dependent on PAX8, dose response, cell-based, plate reader, dry powder (AID 743049); type: functional
[11] = cytotoxicity in OVCAR4 cells, dose response, cytotoxicity control for PAX8 inhibitor project, cell-based, plate reader, dry powder, SA11 (AID 743150); type: functional; settings: OVCAR-4
[12] = PAX5 activity inhibitors, dose response, selectivity assay for PAX8 inhibitor project, cell-based, plate reader, dry powder samples (AID 743047); type: functional;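 note: HEK293 cells carrying a Pax5 driven CD19 promoter luciferase reporter; potency of inhibitors that lower reporter luminescence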
[13] = cytotoxicity in COV434 cells, dose response, cytotoxicity control for PAX8 inhibitor project, cell-based, plate reader, dry powder, SA7 (AID 743145); type: functional
[14] = MITF: Counter assay: A375 proliferation Measured in Cell-Based System Using Plate Reader - 2084-03_Inhibitor_Dose_DryPowder_Activity_Set8.; type: functional; settings: A-375
[15] = TRPM1 promoter luciferase reporter signal decrease, dose response, MITF inhibitor project, cell-based, SK-MEL-5, dry powder, set 8 (AID 624430); type: functional
[16] = MITF Orthogonal Assay: SK-MEL-5 CTG Assay Measured in Cell-Based System Using Plate Reader - 2084-02_Inhibitor_Dose_DryPowder_Activity_Set7.; type: functional
[17] = P. falciparum Dd2 growth inhibitors, dose response, SYBR Green, cherry-picked samples (AID 1159567); type: functional, cell-based
[18] = cytotoxicity in HEK293 cells, dose response, cytotoxicity control, cell-based, cherry-picked samples (AID 1053185); type: functional
[19] = cytotoxicity in A549 cells, dose response, cytotoxicity control, cell-based, cherry-picked samples (AID 1053184); type: functional
[20] = HepG2 cell cytotoxicity, dose response, cytotoxicity control, cherry-picked samples (AID 1159577); type: functional, cell-based
[21] = cytotoxicity in HepG2 cells, dose response, cytotoxicity control, cell-based, cherry-picked samples (AID 1053183); type: functional
Mu-type opioid receptor = Mu-type opioid receptor (Homo sapiens, UniProt P35372); test: Late-stage results from the probe development effort to identify antagonists of OPRK1: luminescence-based cell-based dose response OPRM1 counterscreen.; type: functional
[22] = biological target: Delta-type opioid receptor (Homo sapiens, UniProt P41143); test: Late-stage results from the probe development effort to identify antagonists of OPRK1: fluorescence-based cell-based dose response OPRD1 counterscreen.; type: functional
[23] = biological target: Kappa-type opioid receptor (Homo sapiens, UniProt P41145); test: OPRK1 antagonists, late-stage follow-up, cell-based, fluorescence, dose response (AID 652032); type: functional
[24] = HEK293 cell cytotoxicity, dose response, cytotoxicity control, cherry-picks, set 5 (AID 1053117); type: functional, cell-based
[25] = inhibitors of fibronectin matrix deposition, dose response, AH1F cells, Alexa488-FN fluorescence, cherry-picks (AID 1035475); type: functional, cell-based
[26] = HepG2 cell cytotoxicity, dose response, cytotoxicity control, cherry-picks, set 5 (AID 1053118); type: functional, cell-based
[27] = HepG2 cell cytotoxicity, dose response, cytotoxicity control, ATP luminescence, cherry-pick, activator set 2 (AID 1053143); type: functional, cell-based
[28] = biological target: Intestinal-type alkaline phosphatase (Homo sapiens, UniProt P09923); test: human intestinal alkaline phosphatase activators, dose response, biochemical, luminescence, uHTS hits (AID 463120); type: functional
Intestinal-type alkaline phosphatase, sequence (P09923 whole entry): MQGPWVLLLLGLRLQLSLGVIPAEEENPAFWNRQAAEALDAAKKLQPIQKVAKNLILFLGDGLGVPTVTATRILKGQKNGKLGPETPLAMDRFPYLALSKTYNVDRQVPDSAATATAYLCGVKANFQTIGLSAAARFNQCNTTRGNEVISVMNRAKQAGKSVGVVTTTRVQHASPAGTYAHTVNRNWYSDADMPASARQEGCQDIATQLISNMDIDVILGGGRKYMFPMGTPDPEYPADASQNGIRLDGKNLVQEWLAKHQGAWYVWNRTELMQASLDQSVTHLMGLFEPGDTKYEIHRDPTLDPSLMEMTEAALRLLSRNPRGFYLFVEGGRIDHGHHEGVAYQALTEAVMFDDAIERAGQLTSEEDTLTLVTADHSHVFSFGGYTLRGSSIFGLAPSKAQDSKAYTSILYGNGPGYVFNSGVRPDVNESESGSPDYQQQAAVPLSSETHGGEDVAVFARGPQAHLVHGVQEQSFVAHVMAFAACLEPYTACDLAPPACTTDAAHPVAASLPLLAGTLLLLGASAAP

Delta-type opioid receptor, sequence (P41143 whole entry): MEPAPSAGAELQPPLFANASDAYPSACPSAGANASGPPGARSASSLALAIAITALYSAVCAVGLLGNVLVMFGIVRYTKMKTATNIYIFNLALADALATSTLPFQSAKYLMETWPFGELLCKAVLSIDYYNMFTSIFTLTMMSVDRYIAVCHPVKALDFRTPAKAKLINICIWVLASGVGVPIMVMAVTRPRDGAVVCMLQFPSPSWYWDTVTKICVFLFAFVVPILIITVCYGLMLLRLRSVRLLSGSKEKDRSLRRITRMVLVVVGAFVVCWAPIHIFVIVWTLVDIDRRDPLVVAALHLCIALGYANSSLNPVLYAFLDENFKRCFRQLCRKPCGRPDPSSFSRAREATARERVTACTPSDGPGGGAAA
Mu-type opioid receptor, sequence (P35372 whole entry): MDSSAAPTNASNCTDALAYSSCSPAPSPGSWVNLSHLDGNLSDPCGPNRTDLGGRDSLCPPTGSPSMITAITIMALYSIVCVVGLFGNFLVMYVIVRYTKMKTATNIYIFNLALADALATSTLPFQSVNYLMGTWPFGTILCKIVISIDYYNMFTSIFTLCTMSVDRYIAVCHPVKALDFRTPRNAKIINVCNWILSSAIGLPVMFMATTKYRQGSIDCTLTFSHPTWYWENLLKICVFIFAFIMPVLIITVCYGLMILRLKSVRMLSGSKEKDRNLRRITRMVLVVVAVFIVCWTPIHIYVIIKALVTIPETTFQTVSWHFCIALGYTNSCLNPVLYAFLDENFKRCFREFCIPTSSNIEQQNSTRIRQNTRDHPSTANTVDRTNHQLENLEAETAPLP
Metabotropic glutamate receptor 3, sequence (P31422 whole entry): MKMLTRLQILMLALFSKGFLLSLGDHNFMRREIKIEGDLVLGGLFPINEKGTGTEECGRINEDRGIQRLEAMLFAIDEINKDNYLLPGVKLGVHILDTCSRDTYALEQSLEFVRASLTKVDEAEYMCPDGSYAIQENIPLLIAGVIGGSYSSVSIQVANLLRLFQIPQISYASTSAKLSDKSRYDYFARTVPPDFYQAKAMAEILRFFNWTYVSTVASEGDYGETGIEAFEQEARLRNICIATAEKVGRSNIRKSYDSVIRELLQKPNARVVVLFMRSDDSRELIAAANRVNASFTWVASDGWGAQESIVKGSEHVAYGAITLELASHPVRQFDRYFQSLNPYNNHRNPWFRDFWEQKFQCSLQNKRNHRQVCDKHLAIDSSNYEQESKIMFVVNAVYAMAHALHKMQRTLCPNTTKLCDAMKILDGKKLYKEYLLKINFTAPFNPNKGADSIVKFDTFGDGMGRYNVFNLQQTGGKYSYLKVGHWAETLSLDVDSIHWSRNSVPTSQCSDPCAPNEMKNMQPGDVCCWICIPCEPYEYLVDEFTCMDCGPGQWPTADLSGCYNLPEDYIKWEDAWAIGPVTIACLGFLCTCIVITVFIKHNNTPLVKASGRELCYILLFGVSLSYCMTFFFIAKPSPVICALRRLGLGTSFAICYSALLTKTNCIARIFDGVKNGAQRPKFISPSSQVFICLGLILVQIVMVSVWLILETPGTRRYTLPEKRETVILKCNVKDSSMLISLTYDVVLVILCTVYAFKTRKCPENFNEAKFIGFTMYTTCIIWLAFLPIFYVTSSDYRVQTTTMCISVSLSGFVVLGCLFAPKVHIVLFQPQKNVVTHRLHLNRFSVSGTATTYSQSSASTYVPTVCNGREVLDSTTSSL
Kappa-type opioid receptor, sequence (P41145 whole entry): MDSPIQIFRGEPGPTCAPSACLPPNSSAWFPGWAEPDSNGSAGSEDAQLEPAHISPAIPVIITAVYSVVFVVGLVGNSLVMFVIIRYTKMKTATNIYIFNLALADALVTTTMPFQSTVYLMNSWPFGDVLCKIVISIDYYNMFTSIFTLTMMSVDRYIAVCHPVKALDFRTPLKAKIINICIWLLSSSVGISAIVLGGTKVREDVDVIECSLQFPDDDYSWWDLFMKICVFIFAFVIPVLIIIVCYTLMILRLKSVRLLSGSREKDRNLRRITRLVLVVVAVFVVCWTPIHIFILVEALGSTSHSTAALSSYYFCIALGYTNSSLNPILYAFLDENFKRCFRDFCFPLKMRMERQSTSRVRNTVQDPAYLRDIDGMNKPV

COc1ccc(CC(=O)NO)cc1
IC50 [1]: 20 µM (inactive)

COc1ccc(C#Cc2ccc(C(=O)N3CC[C@H](O)C3)cc2)cc1
IC50 [2]: 8.66 µM (active)

C[C@@H]1CCCCO[C@@H](CN(C)S(C)(=O)=O)[C@@H](C)CN([C@@H](C)CO)C(=O)c2cc(NS(=O)(=O)c3ccc(Cl)cc3)ccc2O1
AC50 [3]: 17.6 µM (active)

O=C(CCCN1C(=O)/C(=C\c2ccccc2OC(F)F)SC1=S)Nc1cccnc1
AC50 [4]: 18.1 µM (active) | AC50 [5]: 9.15 µM (active) | AC50 [6]: > 100 µM (inactive) | AC50 [7]: 46.9 µM (active) | AC50 [8]: 21.6 µM (active) | AC50 [9]: 46.2 µM (active) | AC50 [10]: 7.44 µM (active) | AC50 [11]: 14.8 µM (active) | AC50 [12]: 81 µM (active) | AC50 [13]: 34.5 µM (active)

CN1CCN(C2=C(Nc3cccc(Cl)c3)C(=O)c3ccccc3C2=O)CC1
AC50 [14]: 30.7 µM (active) | AC50 [15]: 5.11 µM (active) | AC50 [16]: 11.1 µM (active)

C/C=C/c1ccc([C@@H]2[C@@H]3CN(C(=O)Nc4ccc(C(F)(F)F)cc4)C[C@H]2N3)cc1
AC50 [17]: 6.85 µM (active) | AC50 [18]: 16.6 µM (active) | AC50 [19]: 18.1 µM (active) | AC50 [20]: 10.3 µM (active) | AC50 [21]: 16.7 µM (active)

COC(=O)c1cc(Br)cnc1N1CCC(N[C@@H]2CCCC[C@@H]2O)CC1
IC50 (Mu-type opioid receptor): 19 µM (inactive) | IC50 [22]: > 50 µM (inactive) | IC50 [23]: 0.579 µM (active)

CO[C@H]1CN(C)C(=O)c2ccc(NC(=O)Nc3ccc(Cl)c(Cl)c3)cc2OC[C@H](C)NC[C@@H]1C
AC50 [24]: 18.4 µM (active) | AC50 [25]: 53.6 µM (active) | AC50 [26]: 11.2 µM (active)

c1ccc(Nc2ccnc(Nc3ccccc3)n2)cc1
AC50 [27]: 26 µM (active) | EC50 [28]: > 100 µM (inactive)
